Test results taken from BindingDB's records for doi:10.1016/j.bmcl.2007.02.076 (Bristol-Myers Squibb Pharmaceutical Research Institute, 2007).

Assay: Inhibition of pTACE

Row | SMILES | IC50
1 | Cc1cc(COc2ccc(C(=O)NCc3n[nH]c(=O)[nH]3)cc2)c2ccccc2n1 [4-((2-methylquinolin-4-yl)methoxy)-N-((5-oxo-4,5-dihydro-1H-1,2,4-triazol-3-yl)methyl)benzamide] | > 1000 nM
2 | Cc1cc(COc2ccc(C(=O)Nc3ccccc3-c3[nH]c(=O)[nH]c3O)cc2)c2ccccc2n1 [N-(2-(2,5-dioxoimidazolidin-4-yl)phenyl)-4-((2-methylquinolin-4-yl)methoxy)benzamide] | 14 nM
3 | Cc1cc(COc2ccc(S(=O)(=O)NCC3(C)NC(=O)NC3=O)cc2)c2ccccc2n1 (stereo not drawn) [N-((4-methyl-2,5-dioxoimidazolidin-4-yl)methyl)-4-((2-methylquinolin-4-yl)methoxy)benzenesulfonamide] | 37 nM
4 | Cc1cc(COc2ccc(S(=O)(=O)NCc3n[nH]c(=O)[nH]3)cc2)c2ccccc2n1 [4-((2-methylquinolin-4-yl)methoxy)-N-((5-oxo-4,5-dihydro-1H-1,2,4-triazol-3-yl)methyl)benzenesulfonamide] | 439 nM
5 | Cc1cc(COc2ccc(C(=O)Nc3ccccc3C(=O)c3c[nH]c(=O)[nH]3)cc2)c2ccccc2n1 [4-((2-methylquinolin-4-yl)methoxy)-N-(2-(2-oxo-2,3-dihydro-1H-imidazole-5-carbonyl)phenyl)benzamide] | 9 nM
6 | Cc1cc(COc2ccc(C(=O)NCC3(C)NC(=O)NC3=O)cc2)c2ccccc2n1 (stereo not drawn) [N-((4-methyl-2,5-dioxoimidazolidin-4-yl)methyl)-4-((2-methylquinolin-4-yl)methoxy)benzamide] | 29 nM
7 | Cc1cc(COc2ccc(C(=O)Nc3ccccc3Cc3n[nH]c(=O)[nH]3)cc2)c2ccccc2n1 [4-((2-methylquinolin-4-yl)methoxy)-N-(2-((5-oxo-4,5-dihydro-1H-1,2,4-triazol-3-yl)methyl)phenyl)benzamide] | 34 nM
8 | Cc1cc(COc2ccc(C(=O)Nc3ccccc3Cc3c[nH]c(=O)[nH]3)cc2)c2ccccc2n1 [4-((2-methylquinolin-4-yl)methoxy)-N-(2-((2-oxo-2,3-dihydro-1H-imidazol-5-yl)methyl)phenyl)benzamide] | 1600 nM
